Assay results taken from ChEMBL document CHEMBL5625245, “Novel ProTide prodrugs of 5-fluoro-2'-deoxyuridine for the treatment of liver cancer” (Eur J Med Chem, 2023).
Activity calls are given as the source filed them. The rule behind the calls is not given here.

Assays:
[1] = Toxicity in orthotopic mouse assessed as effect on kidney at 60 mg/kg, iv administered twice daily for 18 days by H and E staining based analysis; format: organism-based; conditions: in vivo, 432 h, time 18 day
[2] = Toxicity in orthotopic mouse assessed as change in liver weight at 60 mg/kg, iv administered twice daily for 18 days; format: organism-based; conditions: in vivo, 432 h, time 18 day
[3] = tested on: HepG2; assay: Antitumor activity against human HepG2 cells xenografted in orthotopic mouse model assessed as average number of tumor at 60 mg/kg, iv administered twice daily for 18 days in presence of 5-Fluorouracil (reference value: 49+/3.6 mM); format: functional; conditions: time 18 day
[4] = Toxicity in orthotopic mouse assessed as effect on liver at 60 mg/kg, iv administered twice daily for 18 days by H and E staining based analysis; format: organism-based; conditions: in vivo, 432 h, time 18 day
[5] = Toxicity in orthotopic mouse assessed as effect on drug tolerance at 60 mg/kg, iv administered twice daily for 18 days; format: organism-based; conditions: in vivo, 432 h, time 18 day
[6] = Toxicity in orthotopic mouse assessed as effect on heart at 60 mg/kg, iv administered twice daily for 18 days by H and E staining based analysis; format: organism-based; conditions: in vivo, 432 h, time 18 day
[7] = tested on: HepG2; assay: Antitumor activity against human HepG2 cells xenografted in orthotopic mouse model assessed as tumor growth inhibition at 60 mg/kg, iv administered twice daily for 18 days in presence of 5-Fluorouracil relative to control; format: functional; conditions: HepG2, 432 h, time 18 day, read-out: TGI
[8] = tested on: HepG2; assay: Antitumor activity against human HepG2 cells xenografted in mouse model assessed as tumor growth inhibition at 150 mg/kg/day for 7 days relative to control; format: functional; conditions: HepG2, 168 h, time 7 day, read-out: TGI
[9] = tested on: Bel-7402; assay: Antiproliferative activity against human Bel-7402 cells assessed as reduction in cell viability at 20 uM measured after 48 to 72 hrs in presence of 5-Fluorouracil by MTT assay; format: functional, cell-based; conditions: time 48-72 hrs
[10] = Antiproliferative activity against human NCM460 cells assessed as reduction in cell viability measured after 48 to 72 hrs by MTT assay; format: toxicity, cell-based
[11] = Antiproliferative activity against human L02 cells assessed as reduction in cell viability measured after 48 to 72 hrs by MTT assay; format: toxicity, cell-based
[12] = tested on: Bel-7402; assay: Antiproliferative activity against human Bel-7402 cells assessed as reduction in cell viability measured after 48 to 72 hrs by MTT assay; format: functional, cell-based
[13] = tested on: HepG2; assay: Antitumor activity against human HepG2 cells xenografted in mouse model assessed as tumor growth inhibition at 100 mg/kg/day for 7 days relative to control; format: functional; conditions: HepG2, 168 h, time 7 day, read-out: TGI
[14] = Toxicity in orthotopic mouse assessed as effect on spleen at 60 mg/kg, iv administered twice daily for 18 days by H and E staining based analysis; format: organism-based; conditions: in vivo, 432 h, time 18 day
[15] = tested on: HepG2; assay: Antiproliferative activity against human HepG2 cells assessed as reduction in cell viability measured after 48 to 72 hrs by MTT assay; format: functional, cell-based
[16] = Toxicity in orthotopic mouse assessed as effect on body weight at 60 mg/kg, iv administered twice daily for 18 days; format: organism-based; conditions: in vivo, 432 h, time 18 day
[17] = Toxicity in orthotopic mouse assessed as effect on lung at 60 mg/kg, iv administered twice daily for 18 days by H and E staining based analysis; format: organism-based; conditions: in vivo, 432 h, time 18 day
[18] = tested on: HepG2; assay: Antiproliferative activity against human HepG2 cells assessed as reduction in cell viability at 20 uM measured after 48 to 72 hrs in presence of 5-Fluorouracil by MTT assay; format: functional, cell-based; conditions: time 48-72 hrs
[19] = tested on: Bel-7402; assay: Antiproliferative activity against human Bel-7402 cells assessed as reduction in cell viability at 20 uM measured after 48 hrs by MTT assay; format: functional, cell-based
[20] = tested on: HepG2; assay: Antiproliferative activity against human HepG2 cells assessed as reduction in cell viability at 20 uM measured after 48 hrs by MTT assay relative to control; format: functional
[21] = tested on: Bel-7402; assay: Antiproliferative activity against human Bel-7402 cells assessed as reduction in cell viability at 20 uM measured after 48 hrs by MTT assay relative to control; format: functional

| SMILES | IC50 [10] | IC50 [11] | IC50 [12] | IC50 [15] | Activity [20] | Activity [21] | also measured |
| --- | --- | --- | --- | --- | --- | --- | --- |
| CC(C)OC(=O)[C@H](C)N[P@](=O)(OC[C@H]1O[C@@H](n2cc(F)c(=O)[nH]c2=O)C[C@@H]1O)Oc1ccccc1 | > 100 µM | > 100 µM | 18.2 µM | 36.2 µM |  |  | Activity [1]: Non-Toxic; Activity [2]: Toxic; tumour count [3]: 21; Activity [4]: Non-Toxic; Activity [5]: Non-Toxic; Activity [6]: Non-Toxic; inhibition in vivo at 60 mg/kg [7]: 57.1%; inhibition in vivo at 150 mg/kg/day [8]: 68%; Activity [9]: Active; inhibition in vivo at 100 mg/kg/day [13]: 52%; Activity [14]: Non-Toxic; Activity [16]: Non-Toxic; Activity [17]: Non-Toxic; Activity [18]: Active |
| CC(C)C[C@H](N)C(=O)O[C@H]1C[C@H](n2cc(F)c(=O)[nH]c2=O)O[C@@H]1CO[P@@](=O)(N[C@@H](C)C(=O)OC(C)C)Oc1ccccc1 |  |  |  |  |  |  | Activity [19]: Active |
| CC(C)C[C@H](NC(=O)CNC(=O)OC(C)(C)C)C(=O)O[C@H]1C[C@H](n2cc(F)c(=O)[nH]c2=O)O[C@@H]1CO[P@@](=O)(N[C@@H](C)C(=O)OC(C)C)Oc1ccccc1 |  |  |  |  | >50% |  |  |
| Cc1ccccc1CO[P@](=O)(N[C@@H](C)C(=O)OC(C)C)OC[C@H]1O[C@@H](n2cc(F)c(=O)[nH]c2=O)C[C@@H]1O | > 100 µM | > 100 µM | 0.73 µM | 0.59 µM |  |  |  |
| CC(C)OC(=O)[C@H](C)N[P@](=O)(OC[C@H]1O[C@@H](n2cc(F)c(=O)[nH]c2=O)C[C@@H]1OC(=O)OC(C)(C)C)Oc1ccccc1 |  |  |  |  | 50% | 50% |  |
| CC(C)C[C@H](NC(=O)OC(C)(C)C)C(=O)O[C@H]1C[C@H](n2cc(F)c(=O)[nH]c2=O)O[C@@H]1CO[P@@](=O)(N[C@@H](C)C(=O)OC(C)C)Oc1ccccc1 | > 100 µM | > 100 µM | 9.68 µM | 21.2 µM |  | >60% |  |
| CC(C)OC(=O)[C@H](C)N[P@](=O)(OC[C@H]1O[C@@H](n2cc(F)c(=O)[nH]c2=O)C[C@@H]1OC(=O)[C@H](C)N)Oc1ccccc1 |  |  |  |  |  |  | Activity [19]: Active |
| CC(C)OC(=O)[C@H](C)N[P@](=O)(OC[C@H]1O[C@@H](n2cc(F)c(=O)[nH]c2=O)C[C@@H]1OC(=O)[C@H](CC(=O)OC(C)(C)C)NC(=O)OC(C)(C)C)Oc1ccccc1 | > 100 µM | > 100 µM | 3.77 µM | 19.9 µM |  | >60% |  |
| CC(C)OC(=O)[C@H](C)N[P@](=O)(OC[C@H]1O[C@@H](n2cc(F)c(=O)[nH]c2=O)C[C@@H]1OC(=O)[C@H](C)NC(=O)CN)Oc1ccccc1 |  |  |  |  | 50% | 50% |  |
| CC(C)OC(=O)[C@H](C)N[P@](=O)(OC[C@H]1O[C@@H](n2cc(F)c(=O)[nH]c2=O)C[C@@H]1OC(=O)[C@H](C)NC(=O)CNC(=O)OC(C)(C)C)Oc1ccccc1 |  |  |  |  | 50% | 50% |  |
| CCC(C)[C@H](NC(=O)OC(C)(C)C)C(=O)O[C@H]1C[C@H](n2cc(F)c(=O)[nH]c2=O)O[C@@H]1CO[P@@](=O)(N[C@@H](C)C(=O)OC(C)C)Oc1ccccc1 (some centres undefined) | > 100 µM | > 100 µM | 8.99 µM | 48.7 µM |  | >60% |  |
| CC(C)C[C@H](N)C(=O)NCC(=O)O[C@H]1C[C@H](n2cc(F)c(=O)[nH]c2=O)O[C@@H]1CO[P@@](=O)(N[C@@H](C)C(=O)OC(C)C)Oc1ccccc1 |  |  |  |  | 50% | 50% |  |
| C[C@H](N[P@](=O)(OC[C@H]1O[C@@H](n2cc(F)c(=O)[nH]c2=O)C[C@@H]1O)Oc1cccc2ccccc12)C(=O)OCc1ccccc1 | > 100 µM | > 100 µM | > 100 µM | > 100 µM | <10% | <10% |  |
| CC(C)C[C@H](NC(=O)CN)C(=O)O[C@H]1C[C@H](n2cc(F)c(=O)[nH]c2=O)O[C@@H]1CO[P@@](=O)(N[C@@H](C)C(=O)OC(C)C)Oc1ccccc1 |  |  |  |  | 50% | 50% |  |
| CC(C)OC(=O)[C@H](C)N[P@](=O)(OC[C@H]1O[C@@H](n2cc(F)c(=O)[nH]c2=O)C[C@@H]1OC(=O)CN)Oc1ccccc1 |  |  |  |  |  |  | Activity [19]: Active |
| CC(C)OC(=O)[C@H](C)N[P@](=O)(OC[C@H]1O[C@@H](n2cc(F)c(=O)[nH]c2=O)C[C@@H]1OC(=O)[C@@H](N)Cc1ccccc1)Oc1ccccc1 |  |  |  |  |  |  | Activity [19]: Active |
| CC(C)OC(=O)[C@H](C)N[P@](=O)(OC[C@H]1O[C@@H](n2cc(F)c(=O)[nH]c2=O)C[C@@H]1OC(=O)[C@H](Cc1ccccc1)NC(=O)[C@@H](NC(=O)OC(C)(C)C)C(C)C)Oc1ccccc1 | > 100 µM | > 100 µM | 13.2 µM | 34.1 µM |  |  |  |
| CC(C)OC(=O)[C@H](C)N[P@](=O)(OC[C@H]1O[C@@H](n2cc(F)c(=O)[nH]c2=O)C[C@@H]1OC(=O)CNC(=O)OC(C)(C)C)Oc1ccccc1 | > 100 µM | > 100 µM | 10.1 µM | 17.5 µM | >50% | >60% |  |
| CCC(C)[C@H](N)C(=O)O[C@H]1C[C@H](n2cc(F)c(=O)[nH]c2=O)O[C@@H]1CO[P@@](=O)(N[C@@H](C)C(=O)OC(C)C)Oc1ccccc1 (some centres undefined) | > 100 µM | > 100 µM | 9.11 µM | 15.2 µM | >50% |  | Activity [19]: Active |
| CC(C)C[C@H](NC(=O)OC(C)(C)C)C(=O)NCC(=O)O[C@H]1C[C@H](n2cc(F)c(=O)[nH]c2=O)O[C@@H]1CO[P@@](=O)(N[C@@H](C)C(=O)OC(C)C)Oc1ccccc1 |  |  |  |  | 50% | 50% |  |
| CC(C)OC(=O)[C@H](C)N[P@](=O)(OC[C@H]1O[C@@H](n2cc(F)c(=O)[nH]c2=O)C[C@@H]1OC(=O)[C@H](Cc1ccccc1)NC(=O)OC(C)(C)C)Oc1ccccc1 | > 100 µM | > 100 µM | 7.18 µM | 28.7 µM |  | >60% |  |
| CC(C)OC(=O)[C@H](C)N[P@](=O)(OC[C@H]1O[C@@H](n2cc(F)c(=O)[nH]c2=O)C[C@@H]1OC(=O)[C@@H](N)CC(=O)O)Oc1ccccc1 |  |  |  |  |  |  | Activity [19]: Active |
| CC(C)OC(=O)[C@H](C)N[P@](=O)(OC[C@H]1O[C@@H](n2cc(F)c(=O)[nH]c2=O)C[C@@H]1OC(=O)[C@H](Cc1ccccc1)NC(=O)[C@@H](N)C(C)C)Oc1ccccc1 |  |  |  |  | 50% | 50% |  |
